{"source": "ChEMBL document CHEMBL3414435", "about": "“Computer aided drug discovery of highly ligand efficient, low molecular weight imidazopyridine analogs as FLT3 inhibitors” (Eur J Med Chem, 2015)", "key": {"[1]": {"target": "Receptor-type tyrosine-protein kinase FLT3 (Homo sapiens) (UniProt P36888)", "settings": "at 20 µM"}, "[2]": {"target": "T1, Receptor-type tyrosine-protein kinase FLT3 (Homo sapiens, UniProt P36888)", "T1 sequence (P36888 whole entry)": "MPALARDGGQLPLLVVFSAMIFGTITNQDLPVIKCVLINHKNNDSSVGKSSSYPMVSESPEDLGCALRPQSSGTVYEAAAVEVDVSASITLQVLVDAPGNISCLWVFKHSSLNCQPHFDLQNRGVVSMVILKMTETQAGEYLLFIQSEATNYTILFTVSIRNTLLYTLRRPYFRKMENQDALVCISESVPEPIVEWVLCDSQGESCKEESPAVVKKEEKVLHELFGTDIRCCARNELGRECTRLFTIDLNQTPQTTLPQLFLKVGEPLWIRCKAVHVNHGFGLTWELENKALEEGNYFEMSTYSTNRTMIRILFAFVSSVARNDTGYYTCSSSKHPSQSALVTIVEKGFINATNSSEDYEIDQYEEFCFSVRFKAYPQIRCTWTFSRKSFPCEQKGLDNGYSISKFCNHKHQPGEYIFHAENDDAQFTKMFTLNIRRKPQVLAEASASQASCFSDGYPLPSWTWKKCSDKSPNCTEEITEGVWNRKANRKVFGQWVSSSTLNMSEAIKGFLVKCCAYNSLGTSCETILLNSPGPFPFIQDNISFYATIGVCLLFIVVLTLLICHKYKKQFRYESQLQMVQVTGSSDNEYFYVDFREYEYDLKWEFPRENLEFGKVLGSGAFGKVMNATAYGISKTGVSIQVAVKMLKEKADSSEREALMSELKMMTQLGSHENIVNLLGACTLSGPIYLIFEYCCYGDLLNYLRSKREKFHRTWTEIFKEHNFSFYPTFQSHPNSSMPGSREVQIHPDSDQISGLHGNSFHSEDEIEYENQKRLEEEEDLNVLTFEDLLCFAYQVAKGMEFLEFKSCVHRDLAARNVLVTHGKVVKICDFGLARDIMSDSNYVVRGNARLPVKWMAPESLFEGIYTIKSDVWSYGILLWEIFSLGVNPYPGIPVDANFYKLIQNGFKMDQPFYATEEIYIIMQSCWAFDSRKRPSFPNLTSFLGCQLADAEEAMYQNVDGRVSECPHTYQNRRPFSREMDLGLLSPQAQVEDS"}, "[3]": {"test_system": "Receptor-type tyrosine-protein kinase FLT3 (Homo sapiens), P36888 [UNDEFINED MUTATION]", "experiment": "Inhibition of FLT3 ITD mutant in human MV4-11 cells assessed as cell growth inhibition after 48 hrs by CellTiter-Glo assay", "type": "cell-based"}, "[4]": {"test_system": "Receptor-type tyrosine-protein kinase FLT3 (Homo sapiens), P36888 [UNDEFINED MUTATION]", "experiment": "Inhibition of FLT3 ITD F691L mutant (unknown origin) expressed in mouse BAF3 cells assessed as cell growth inhibition after 48 hrs by CellTiter-Glo assay", "type": "cell-based"}, "[5]": {"test_system": "Receptor-type tyrosine-protein kinase FLT3 (Homo sapiens), P36888 [UNDEFINED MUTATION]", "experiment": "Inhibition of FLT3 ITD mutant (unknown origin) expressed in mouse BAF3 cells assessed as cell growth inhibition after 48 hrs by CellTiter-Glo assay", "type": "cell-based"}, "[6]": {"test_system": "Receptor-type tyrosine-protein kinase FLT3 (Homo sapiens), P36888 [UNDEFINED MUTATION]", "experiment": "Inhibition of FLT3 ITD mutant in human MOLM14 cells assessed as cell growth inhibition after 48 hrs by CellTiter-Glo assay", "type": "cell-based", "settings": "MOLM-14"}, "[7]": {"test_system": "Receptor-type tyrosine-protein kinase FLT3 (Homo sapiens), P36888 [UNDEFINED MUTATION]", "experiment": "Inhibition of FLT3 ITD D835V mutant (unknown origin) expressed in mouse BAF3 cells assessed as cell growth inhibition after 48 hrs by CellTiter-Glo assay", "type": "cell-based"}}}
{"smiles": "COc1ccc(-c2ccn3c(-c4ccc(C)cc4)cnc3c2)cc1", "values": [{"measurement": "inhibition", "setting": "[1]", "result": 91.4, "unit": "%"}, {"measurement": "IC50", "setting": "[2]", "result": 440, "unit": "nM"}]}
{"smiles": "N#CCc1ccc(-c2cnc3cc(-c4ccco4)ccn23)cc1", "values": [{"measurement": "inhibition", "setting": "[1]", "result": 97.8, "unit": "%"}, {"measurement": "IC50", "setting": "[2]", "result": 190, "unit": "nM"}]}
{"smiles": "COc1ccc(-c2ccn3c(-c4ccc(F)c(C#N)c4)cnc3c2)cc1", "values": [{"measurement": "inhibition", "setting": "[1]", "result": 81.4, "unit": "%"}]}
{"smiles": "c1ccc(-c2ccn3ccnc3c2)cc1", "values": [{"measurement": "inhibition", "setting": "[1]", "result": 0, "unit": "%"}]}
{"smiles": "N#CCc1ccc(-c2cnc3cc(-c4cccs4)ccn23)cc1", "values": [{"measurement": "inhibition", "setting": "[1]", "result": 98, "unit": "%"}, {"measurement": "IC50", "setting": "[2]", "result": 51, "unit": "nM"}]}
{"smiles": "c1csc(-c2ccn3ccnc3c2)c1", "values": [{"measurement": "inhibition", "setting": "[1]", "result": 79.8, "unit": "%"}]}
{"smiles": "Cc1ccc(-c2cnc3cc(-c4ccco4)ccn23)cc1", "values": [{"measurement": "inhibition", "setting": "[1]", "result": 95.5, "unit": "%"}, {"measurement": "IC50", "setting": "[2]", "result": 160, "unit": "nM"}]}
{"smiles": "Cc1ccc(-c2cnc3ccccn23)cc1", "values": [{"measurement": "inhibition", "setting": "[1]", "result": 77, "unit": "%"}]}
{"smiles": "N#Cc1cc(-c2cnc3cc(-c4cccs4)ccn23)ccc1F", "values": [{"measurement": "inhibition", "setting": "[1]", "result": 29.7, "unit": "%"}]}
{"smiles": "Fc1ccc(-c2cnc3cc(-c4ccco4)ccn23)cc1", "values": [{"measurement": "GI50", "setting": "[3]", "result": 830, "unit": "nM"}, {"measurement": "GI50", "setting": "[4]", "result": "> 1000", "unit": "nM"}, {"measurement": "inhibition", "setting": "[1]", "result": 99.3, "unit": "%"}, {"measurement": "GI50", "setting": "[5]", "result": 484, "unit": "nM"}, {"measurement": "IC50", "setting": "[2]", "result": 41, "unit": "nM"}, {"measurement": "GI50", "setting": "[6]", "result": 712, "unit": "nM"}, {"measurement": "GI50", "setting": "[7]", "result": "> 1000", "unit": "nM"}]}
{"smiles": "N#CCc1ccc(-c2cnc3ccccn23)cc1", "values": [{"measurement": "inhibition", "setting": "[1]", "result": 20, "unit": "%"}]}
{"smiles": "Clc1ccn2ccnc2c1", "values": [{"measurement": "inhibition", "setting": "[1]", "result": 23.8, "unit": "%"}]}
{"smiles": "N#Cc1cc(-c2cnc3cc(-c4ccco4)ccn23)ccc1F", "values": [{"measurement": "inhibition", "setting": "[1]", "result": 98.7, "unit": "%"}, {"measurement": "IC50", "setting": "[2]", "result": 470, "unit": "nM"}]}
{"smiles": "COc1ccc(-c2ccn3c(-c4ccc(CC#N)cc4)cnc3c2)cc1", "values": [{"measurement": "inhibition", "setting": "[1]", "result": 91, "unit": "%"}, {"measurement": "IC50", "setting": "[2]", "result": 430, "unit": "nM"}]}
{"smiles": "COc1ccc(-c2ccn3c(-c4ccc(F)cc4)cnc3c2)cc1", "values": [{"measurement": "inhibition", "setting": "[1]", "result": 98.6, "unit": "%"}, {"measurement": "IC50", "setting": "[2]", "result": 78, "unit": "nM"}]}
{"smiles": "N#Cc1cc(-c2cnc3ccccn23)ccc1F", "values": [{"measurement": "inhibition", "setting": "[1]", "result": 61.3, "unit": "%"}]}
{"smiles": "c1coc(-c2ccn3ccnc3c2)c1", "values": [{"measurement": "inhibition", "setting": "[1]", "result": 67.1, "unit": "%"}]}
{"smiles": "Fc1ccc(-c2cnc3ccccn23)cc1", "values": [{"measurement": "inhibition", "setting": "[1]", "result": 94.8, "unit": "%"}, {"measurement": "IC50", "setting": "[2]", "result": 480, "unit": "nM"}]}
{"smiles": "N#Cc1cc(-c2cnc3cc(-c4ccccc4)ccn23)ccc1F", "values": [{"measurement": "inhibition", "setting": "[1]", "result": 94.1, "unit": "%"}, {"measurement": "IC50", "setting": "[2]", "result": 230, "unit": "nM"}]}
{"smiles": "N#CCc1ccc(-c2cnc3cc(-c4ccccc4)ccn23)cc1", "values": [{"measurement": "inhibition", "setting": "[1]", "result": 96.4, "unit": "%"}, {"measurement": "IC50", "setting": "[2]", "result": 550, "unit": "nM"}]}
{"smiles": "COc1ccc(-c2ccn3ccnc3c2)cc1", "values": [{"measurement": "inhibition", "setting": "[1]", "result": 33.9, "unit": "%"}]}
{"smiles": "c1ccn2ccnc2c1", "values": [{"measurement": "inhibition", "setting": "[1]", "result": 14.6, "unit": "%"}]}
{"smiles": "Fc1ccc(-c2cnc3cc(-c4ccccc4)ccn23)cc1", "values": [{"measurement": "GI50", "setting": "[3]", "result": 706, "unit": "nM"}, {"measurement": "inhibition", "setting": "[1]", "result": 98.8, "unit": "%"}, {"measurement": "GI50", "setting": "[5]", "result": 333, "unit": "nM"}, {"measurement": "IC50", "setting": "[2]", "result": 16, "unit": "nM"}, {"measurement": "GI50", "setting": "[6]", "result": 513, "unit": "nM"}]}
{"smiles": "Cc1ccc(-c2cnc3cc(-c4ccccc4)ccn23)cc1", "values": [{"measurement": "inhibition", "setting": "[1]", "result": 94.1, "unit": "%"}, {"measurement": "IC50", "setting": "[2]", "result": 300, "unit": "nM"}]}
{"smiles": "Cc1ccc(-c2cnc3cc(-c4cccs4)ccn23)cc1", "values": [{"measurement": "inhibition", "setting": "[1]", "result": 89.7, "unit": "%"}]}
